Experimental data published in patent US5670538A, “Use of prodelphinidins for obtaining medicaments intended for the treatment of arthrosis” (Laboratoires Dolisos, priority 1992, dated 1997).

What was measured:
[1] = test system: human articular chondrocytes; experiment: Synthesis of DNA by incorporation of 3H-thymidine in the chondrocytes, index of cell proliferation; type: cell-based; conditions: 1, 10 and 100 pg/ml (so in the source); relative to control values
Description: (§1) 1. Tridimensional culture of human chondrocytes
(§2) The technique used has been described in detail (Bassleer et al., 1986).
(§3) Briefly, human articular chondrocytes are cultivated in DMEM (Dulbecco's Modification of Eagle's Medium--ICN--Gand, Belgium) with either Ultroser G 1% (GIBCO, Gand, Belgium) or 10% of foetal calf serum (ICN--Gand--Belgium), and 50 μg of ascorbic acid/ml added to it. The cartilage originates from the apparently normal zone of heads of human femur suffering from arthrosis, immediately after an operation carried out to insert a total hip prosthesis; it can also originate from the head of a healthy femur, but which has undergone a traumatism and has had to be replaced. This cartilage is then digested by clostridial collagenase 1 mg/ml (Boehringer-Mannheim, Germany) in a buffer (NaCl 120 mM, CaCl2 1 mM, KCl 5 mM, KH2 PO4 1 mM, NaHCO3 25 mM, glucose 2 mM and Hepes 30 mM, pH 7.4) for 24 hours. After 6 successive washings and centrifugations, the chondrocytes, isolated from their matrix, are cultured in flasks (10^6 cells/2 ml of culture medium) placed on a gyrator (10 rpm). The cultures are kept at 37° C. in an atmosphere of air 95%-CO2 5% (Bassleer et al., 1986). Cultivated under these conditions, after 4 to 5 days the chondrocytes form a tridimensional cluster in each flask. These clusters, which at first have a flocculent appearance, then tend to condense during the culture. After two weeks, their diameter is, in general, from 1 to 2 mm.
(§4) The fresh weight of the clusters increases with the duration of the culture, above all during the few first days.
5. Analysis of the synthesis of DNA by measurement of the incorporation of ^3 H-thymidine
After different culture durations, the chondrocytes are cultivated in nutritive medium with the addition of 2 uCi/ml (5 Ci/mmole) of methyl ^3 H-thymidine (^3 H-TDN) (Amersham, Brussels, Belgium) for 24 hours. […]
The radioactivity incorporated in the cluster is then measured using a beta scintillation counter.

[2] = test system: human articular chondrocytes; experiment: Radioimmunoassay of type II collagen (coll. II) produced in tridimensional culture of human chondrocytes; type: cell-based
Text: The model used for testing the proanthocyanidols, namely the tridimensional culture of human chondrocytes allows chondrorepair to be quantified by the production of matrix substances: type II collagen, proteoglycans, and chondroresorption by the reduction in the levels of prostaglandin E2 and of OH° and O°2 type free radicals produced.
as §1, §2, §3, §4
3. Radioimmunoassay of type II collagen (coll. II)
The method for the radioimmunoassay of coll. II has been described in detail (Henrotin et al., 1990). The coll. II is extracted from human articular cartilage according to the technique described by Herbage et al. (1977). The antiserum against coll. II was obtained from rabbits according to the technique of Vaitukaitis et al. (1971).
The assay is carried out by sequential saturation. In the first instance, the radioimmunoassay is carried out in a 0.3 ml volume consisting of 0.2 ml of incubation buffer (PBS-50 mM PO4, 300 mM NaCl, 5 g/l BSA (W/V), 6.7 mM sodium azide, pH 7.4) containing the reference coll. II (0.5 to 500 ng) or the sample to be assayed and 0.1 ml of anti-coll. II antiserum from guinea pigs diluted to 1/5000 (24 hours at 4° C.). In the second instance, 0.1 ml of ^125 I-coll. II tracer labelled according to the iodogenic technique (Salacynski et al., 1979 and diluted so as to obtain 20,000 cpm/0.1 ml) is added. After 24 hours at 4° C., the collagen-antibody complexes are separated from the free radioactive coll. II by the double antibody system (Franchimont et al. 1983). Sequential saturation gives a sensitivity of 3 ng/tube. The accuracy of the method is 10%. The coefficients of the intra- and inter assay variation are 10% and 20% respectively.
The assay is specific to human articular type II collagen.
No cross reaction is obtained with bovine collagen of type I, III or IV.
The culture media are stored at -20° C. in the presence of enzymatic inhibitors (Oegema et al., 1975). These media are assayed by the radio immunological method without any treatment beforehand. The chondrocyte clusters are washed and dissociated with ultrasonics according to the method described for the assay of the PGs. After centrifugation (1500 rpm, 10 minutes), the residue is extracted using 500 mM acetic acid under agitation for 24 hours at 4° C. The supernatant of the homogenate and the extract of the residue are mixed together and assayed after equilibration at pH 7.4 using 4M NaOH.
The recovery of coll. […]

Oc1cc(O)c2c(c1)O[C@H](c1cc(O)c(O)c(O)c1)[C@@H](O)[C@@H]2c1c(O)cc(O)c2c1O[C@H](c1cc(O)c(O)c(O)c1)[C@@H](O)[C@@H]2c1c(O)cc(O)c2c1O[C@H](c1cc(O)c(O)c(O)c1)[C@@H](O)C2 [Substance Ic, GC-(4 alpha→8) GC-(4 a→8)-GC]
Incorporation of 3H thymidine in the chondrocytes [1]: None of the substances Ia, lb and Ic modifies the incorporation
Average concentrations (m ± SD) of type II collagen in the clusters of chondrocytes at the end of 12 days of culture ([2]; 1% Ultroser G, 1 μg/ml): 81 ± 6 ng per μg of DNA
Collagen II in the clusters over 12 days, effect in words ([2]; 1% Ultroser G, 1 μg/ml): stimulant
Cumulative release of coll.II over 12 days, Abs ([2]; 1% Ultroser G, 1 μg/ml): 256 ng/μg DNA/12 days
Type II collagen released in the culture medium, effect in words ([2]; 1% Ultroser G, 1 μg/ml): significant effect
Average concentrations (m ± SD) of type II collagen in the clusters of chondrocytes at the end of 12 days of culture ([2]; 1% Ultroser G, 10 μg/ml): 94 ± 7 ng per μg of DNA
Cumulative release of coll.II over 12 days, Abs ([2]; 1% Ultroser G, 10 μg/ml): 292 ng/μg DNA/12 days
Average concentrations (m ± SD) of type II collagen in the clusters of chondrocytes at the end of 12 days of culture ([2]; 1% Ultroser G, 100 μg/ml): 121 ± 13 ng per μg of DNA
Cumulative release of coll.II over 12 days, Abs ([2]; 1% Ultroser G, 100 μg/ml): 337 ng/μg DNA/12 days
Coll. II released in the culture medium ([2]; 1% Ultroser G, culture time 0-4 days, 1 μg/ml): 149.4 ± 8.7 ng/μg DNA/96 h
Coll. II released in the culture medium ([2]; 1% Ultroser G, culture time 0-4 days, 10 μg/ml): 162 ± 11 ng/μg DNA/96 h
Coll. II released in the culture medium ([2]; 1% Ultroser G, culture time 0-4 days, 100 μg/ml): 182 ± 5.6 ng/μg DNA/96 h
Coll. II released in the culture medium ([2]; 1% Ultroser G, culture time 0-8 days (so in the source), 1 μg/ml): 65.8 ± 7.4 ng/μg DNA/96 h
Coll. II released in the culture medium ([2]; 1% Ultroser G, culture time 0-8 days (so in the source), 10 μg/ml): 70.5 ± 7.1 ng/μg DNA/96 h
Coll. II released in the culture medium ([2]; 1% Ultroser G, culture time 0-8 days (so in the source), 100 μg/ml): 93.8 ± 10.5 ng/μg DNA/96 h
Coll. II released in the culture medium ([2]; 1% Ultroser G, culture time 0-12 days (so in the source), 1 μg/ml): 41.2 ± 4.6 ng/μg DNA/96 h
Coll. II released in the culture medium ([2]; 1% Ultroser G, culture time 0-12 days (so in the source), 10 μg/ml): 50.6 ± 4.2 ng/μg DNA/96 h
Coll. II released in the culture medium ([2]; 1% Ultroser G, culture time 0-12 days (so in the source), 100 μg/ml): 61.1 ± 5.2 ng/μg DNA/96 h
activity at 1 µg/mL ([2]; Homo sapiens, Chondrocyte, 288 h, 1% Ultroser G, 1 μg/ml, control = 100, read-out: Cumulative release of coll.II over 12 days, %): 134%
activity at 10 µg/mL ([2]; Homo sapiens, Chondrocyte, 288 h, 1% Ultroser G, 10 μg/ml, control = 100, read-out: Cumulative release of coll.II over 12 days, %): 153%
activity at 100 µg/mL ([2]; Homo sapiens, Chondrocyte, 288 h, 1% Ultroser G, 100 μg/ml, control = 100, read-out: Cumulative release of coll.II over 12 days, %): 176%
Type II collagen in the culture media, effect in words ([2]; foetal calf serum, 10 and 100 μg/ml): increases
Coll. II released in the culture medium ([2]; foetal calf serum, Table 18, 0-4 days, 10 μg/ml): 44.1 ± 6.98 ng/μg DNA/96 H
Coll. II released in the culture medium ([2]; foetal calf serum, Table 18, 0-4 days, 100 μg/ml): 70.7 ± 10.3 ng/μg DNA/96 H
Coll. II released in the culture medium ([2]; foetal calf serum, Table 18, 4-8 days, 10 μg/ml): 33.5 ± 3.71 ng/μg DNA/96 H
Coll. II released in the culture medium ([2]; foetal calf serum, Table 18, 4-8 days, 100 μg/ml): 41.7 ng/μg DNA/96 H
Coll. II released in the culture medium ([2]; foetal calf serum, Table 19, 0-4 days, 10 μg/ml): 37.9 ± 5.47 ng/μg DNA/96 H
Coll. II released in the culture medium ([2]; foetal calf serum, Table 19, 0-4 days, 100 μg/ml): 53.2 ± 4.21 ng/μg DNA/96 H
Coll. II released in the culture medium ([2]; foetal calf serum, Table 19, 4-8 days, 10 μg/ml): 23.3 ± 2.11 ng/μg DNA/96 H
Coll. II released in the culture medium ([2]; foetal calf serum, Table 19, 4-8 days, 100 μg/ml): 33.5 ng/μg DNA/96 H
Coll. II in the clusters ([2]; foetal calf serum, experiment 397, 4-8 days, 10 μg/ml): 85.9 ± 14.45 ng/μg DNA
Coll. II in the clusters ([2]; foetal calf serum, experiment 397, 4-8 days, 100 μg/ml): 109.8 ng/μg DNA
Collagen II in the clusters, effect in words ([2]; foetal calf serum, experiment 397, 10 and 100 μg/ml): An increase in collagen II is observed
